Legend:
[1] = test system: mature miR-210; assay: Mature miR-210 levels in hypoxic MDA-MB-231 cells by RT-qPCR; type: cell-based
Method: (§1) MDA-MB-231 (HTB-26; ATCC) cells were cultured in Roswell Park Memorial Institute (RPM I) 1640 media with L-glutamine & 25 mM HEPES (Corning) supplemented with 10% fetal bovine serum (FBS) (Sigma) and 1×Penicillin Streptomycin Solution (Corning). Cells cultured in normoxia were maintained at 37° C. in ambient atmosphere (˜21% O2) with 5% CO2. Cells cultured in hypoxia were maintained at 37° C., <1% O2 in a nitrogen filled hypoxic chamber (Billups-Rothenberg, Inc.), and 5% CO2. Cells were directly purchased from ATCC, but were not authenticated.
(§2) For compound treatment (TGP-210, TGP-210-RL, LNA-210, Scr-LNA), compound stocks in DMSO or water were diluted in growth medium and added to cells for 24-48 h. […]
(§3) MDA-MB-231 cells were treated in normoxic or hypoxic conditions for 24-48 h, as described above in the Experimental Model and Subject Details section. […] RNA expression levels were determined using the ΔΔCt method and normalized using 18S ribosomal RNA or U6 small nuclear RNA as housekeeping genes. […] Upon treatment with chimeric compound TGP-210-RL, relative cleavage levels were calculated according to equation 1A (Eq. 1A) in order to control for the effect of parent compound TGP-210, on pre-miR-210 expression: […]

[2] = target: pre-miR-210 mimic; assay: Microscale thermophoresis binding, miR-210 Hairpin RNA; conditions: MST
Method: (§4) MST fluorescent measurements were performed on a Monolith NT.115 system (NanoTemper Technologies) using the fluorescence of a 5′-Cy5 labeled miR-210 Hairpin RNA (5′—Cy5 […]) (SEQ ID NO: 11), a 5′-Cy5 miR-210 Mutant RNA (5′—Cy5 […]) (SEQ ID NO: 12), or a 5′ Cy5 DNA Hairpin (5′—Cy5 […]) (SEQ ID NO: 13) which were purchased from IDT with RNase-free HPLC purification and used without further purification. The RNA (5 nM) was prepared in 1×MST Buffer (8 mM Na2HPO4, 190 mM NaCl, 1 mM EDTA, and 0.05% (v/v) Tween-20) and folded by heating at 60° C. for 5 min, and slowly cooling to room temperature. Compounds (TGP-210 or TGP-210-RL) were diluted in 1×MST Buffer and then were added to a final concentration of 20 μM, followed by 1:2 dilutions in 1×MST Buffer containing 5 nM RNA. Alternatively, RNase L in 1×MST Buffer was added to a final concentration of 50 nM in addition to compound and RNA. […] Fluorescence measurements (Ex: 605-645 nm, Em: 680-685 nm) were performed at 20% LED and 80% MST power, with a Laser-On time of 30 s and Laser-Off time of 5 s. The data were analyzed by thermophoresis analysis and fitted by the quadratic binding equation in MST analysis software (NanoTemper Technologies). Dissociation constants were then determined by curve fitting using a single-site model.

[3] = test system: MDA-MB-231 cells; assay: Caspase 3/7 activity in MDA-MB-231 cells; type: cell-based
Method: Approximately 5,000 MDA-MB-231 cells were plated into white, cell-culture treated, 96-well plates (Corning). At ˜60% confluency, cells were treated with dilutions of LNA-210, Scr-LNA, TGP-210, or TGP-210-RL and then placed under hypoxic or normoxic conditions. After 48 h, caspase 3/7 activity was measured using a Caspase-Glo 3/7 kit (Promega) according to the manufacturer's protocol. Alternatively, MDA-MB-231 cells were transfected with a plasmid overexpressing pre-miR-210 (Genecopoeia; HmiR0167-MR04) using Lipofectamine 2000 (Invitrogen). After 5 h of transfection, cells were plated into white, cell-culture treated 96-well plates (Corning) and then treated as described above. Fold change in Caspase activity was calculated by normalizing treated samples to the untreated samples after subtracting background sample values.

[4] = test system: triple negative breast cancer; conditions: triple negative breast cancer mouse model; cited from earlier work
[5] = test system: DNA; assay: Microscale thermophoresis binding, DNA Hairpin
Method: as §4

[6] = test system: pre-miR-210; assay: pre-miR-210 levels / cleavage in hypoxic MDA-MB-231 cells by RT-qPCR; type: cell-based
Method: as §1, §2, §3

Substance: Targapremir-210 [TGP-210]
- Levels of mature miR-210 [1]: decreased
- Kd [2]: 160 nM
- Apoptotic stimulation (caspase activity) ([3]; hypoxic MDA-MB-231 cells, 48 h, TGP-210-RL at 500 nM): similar
- Apoptosis upon miR-210 overexpression ([3]; miR-210 overexpressed background): no longer stimulated apoptosis
- Tumor growth [4]: inhibited tumor growth
- Selectivity window between DNA and the Dicer site in pre-miR-210 [5]: 5 fold
- Kd ([5]; MST): 620 nM
- Cleavage of pre-miR-210 by TGP-210-RL upon addition of TGP-210 ([6]; constant TGP-210-RL, increasing amounts of TGP-210): caused a decrease in cleavage of pre-miR-210
- pre-miR-210 levels ([6]; hypoxic MDA-MB-231 cells): increase

— patent publication US20210102200A1, “SMALL MOLECULE TARGETED RECRUITMENT OF A NUCLEASE TO RNA” (The Scripps Research Institute, priority 2018, published 2021)
